Experiments:
Assay in all cases: in vitro kinase activity assay
Assay type in all cases: biochemical
BMPR1B = BMPR1B (Homo sapiens, UniProt O00238)
TGFBR1 = target: T1, TGFBR1 (Homo sapiens, UniProt P36897)
T1 sequence (P36897 34-503): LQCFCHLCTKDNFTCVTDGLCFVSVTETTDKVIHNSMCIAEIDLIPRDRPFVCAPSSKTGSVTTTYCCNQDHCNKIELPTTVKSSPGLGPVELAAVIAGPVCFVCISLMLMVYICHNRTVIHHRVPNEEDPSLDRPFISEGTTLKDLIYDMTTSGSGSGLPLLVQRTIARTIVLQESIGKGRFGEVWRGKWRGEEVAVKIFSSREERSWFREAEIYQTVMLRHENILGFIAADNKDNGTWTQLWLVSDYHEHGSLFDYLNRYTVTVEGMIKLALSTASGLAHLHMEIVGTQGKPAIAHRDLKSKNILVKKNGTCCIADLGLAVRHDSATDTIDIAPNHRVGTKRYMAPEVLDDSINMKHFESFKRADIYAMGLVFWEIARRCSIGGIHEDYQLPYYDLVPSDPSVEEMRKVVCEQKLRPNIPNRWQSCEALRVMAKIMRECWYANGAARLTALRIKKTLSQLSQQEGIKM

BMPR2 = target: T2, BMPR2 (Homo sapiens, UniProt Q13873)
T2 sequence (Q13873 27-1038): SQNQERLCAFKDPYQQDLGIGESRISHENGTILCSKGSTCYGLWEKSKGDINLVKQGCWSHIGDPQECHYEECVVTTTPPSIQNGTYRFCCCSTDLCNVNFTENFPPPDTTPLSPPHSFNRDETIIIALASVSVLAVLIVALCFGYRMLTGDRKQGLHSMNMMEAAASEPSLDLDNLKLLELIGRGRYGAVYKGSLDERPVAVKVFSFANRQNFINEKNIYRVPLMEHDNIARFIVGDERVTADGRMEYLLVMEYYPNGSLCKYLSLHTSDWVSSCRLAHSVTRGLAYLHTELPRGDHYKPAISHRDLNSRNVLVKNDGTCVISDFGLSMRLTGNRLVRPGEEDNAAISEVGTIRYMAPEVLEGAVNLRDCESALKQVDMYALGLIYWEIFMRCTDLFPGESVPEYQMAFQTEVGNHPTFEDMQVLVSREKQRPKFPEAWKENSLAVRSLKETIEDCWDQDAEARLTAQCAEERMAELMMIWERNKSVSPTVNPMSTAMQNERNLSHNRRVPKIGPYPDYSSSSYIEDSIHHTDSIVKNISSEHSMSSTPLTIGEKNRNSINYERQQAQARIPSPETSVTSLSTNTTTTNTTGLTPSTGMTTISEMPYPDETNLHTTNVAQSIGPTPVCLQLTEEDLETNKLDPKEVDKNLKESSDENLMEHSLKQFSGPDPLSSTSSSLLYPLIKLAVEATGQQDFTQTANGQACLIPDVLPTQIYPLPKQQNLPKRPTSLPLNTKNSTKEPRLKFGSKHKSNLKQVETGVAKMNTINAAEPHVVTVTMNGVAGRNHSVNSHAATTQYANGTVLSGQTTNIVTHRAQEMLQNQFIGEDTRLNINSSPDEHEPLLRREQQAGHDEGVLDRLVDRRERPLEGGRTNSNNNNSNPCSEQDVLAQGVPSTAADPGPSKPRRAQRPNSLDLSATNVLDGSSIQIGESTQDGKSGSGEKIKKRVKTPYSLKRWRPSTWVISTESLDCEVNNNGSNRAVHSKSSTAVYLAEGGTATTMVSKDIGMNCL

BMPR1A = BMPR1A (Homo sapiens, UniProt P36894)
Sequence of BMPR1A (P36894 24-532): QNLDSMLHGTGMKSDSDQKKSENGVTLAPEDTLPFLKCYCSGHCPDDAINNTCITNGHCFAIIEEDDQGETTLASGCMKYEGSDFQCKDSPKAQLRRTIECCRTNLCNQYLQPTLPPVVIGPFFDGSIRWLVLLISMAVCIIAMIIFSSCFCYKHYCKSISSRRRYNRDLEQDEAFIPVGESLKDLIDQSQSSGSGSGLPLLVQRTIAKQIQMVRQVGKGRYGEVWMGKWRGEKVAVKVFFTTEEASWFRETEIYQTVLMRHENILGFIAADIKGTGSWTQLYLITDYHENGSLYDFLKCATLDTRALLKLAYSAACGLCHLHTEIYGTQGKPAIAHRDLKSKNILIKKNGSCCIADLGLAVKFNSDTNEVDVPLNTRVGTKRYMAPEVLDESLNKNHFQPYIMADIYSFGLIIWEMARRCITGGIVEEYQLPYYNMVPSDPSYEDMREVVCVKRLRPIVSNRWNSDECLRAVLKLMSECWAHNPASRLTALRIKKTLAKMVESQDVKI

Sequence of BMPR1B (O00238 14-502): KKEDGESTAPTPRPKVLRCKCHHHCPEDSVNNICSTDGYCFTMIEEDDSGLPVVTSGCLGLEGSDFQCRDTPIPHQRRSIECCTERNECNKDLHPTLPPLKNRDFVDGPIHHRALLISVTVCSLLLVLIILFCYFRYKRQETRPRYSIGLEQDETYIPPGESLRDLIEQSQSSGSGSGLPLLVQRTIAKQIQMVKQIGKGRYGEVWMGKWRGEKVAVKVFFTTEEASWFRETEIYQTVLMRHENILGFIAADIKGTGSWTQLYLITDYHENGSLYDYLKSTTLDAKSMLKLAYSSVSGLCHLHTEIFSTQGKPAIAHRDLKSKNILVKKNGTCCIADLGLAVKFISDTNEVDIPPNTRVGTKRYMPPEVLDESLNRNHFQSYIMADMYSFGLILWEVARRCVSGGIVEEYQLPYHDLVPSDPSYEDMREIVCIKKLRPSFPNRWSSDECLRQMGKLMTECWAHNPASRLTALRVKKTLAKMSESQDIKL

IC50 (BMPR1B): 1100 nM
IC50 (TGFBR1): 1040 nM
IC50 (BMPR2): 201 nM
IC50 (BMPR1A): 806 nM
SMILES: O=C1Nc2ccc(O)cc2/C1=C\c1ccc(O)c(O)c1 [ZL170, (E)-3-(3,4-dihydroxybenzylidene)-5-hydroxyindolin-2-one]

Source: article PMC6429712, “Discovery of a natural small-molecule compound that suppresses tumor EMT, stemness and metastasis by inhibiting TGFβ/BMP signaling in triple-negative breast cancer” (Journal of Experimental & Clinical Cancer Research : CR, 2019)
